Reference: ChEMBL document CHEMBL1136014 (J Med Chem, 2002)

Tests used:
[1] = target: T1, Thyroid hormone receptor beta (Homo sapiens, UniProt P10828)
T1 sequence (P10828 whole entry): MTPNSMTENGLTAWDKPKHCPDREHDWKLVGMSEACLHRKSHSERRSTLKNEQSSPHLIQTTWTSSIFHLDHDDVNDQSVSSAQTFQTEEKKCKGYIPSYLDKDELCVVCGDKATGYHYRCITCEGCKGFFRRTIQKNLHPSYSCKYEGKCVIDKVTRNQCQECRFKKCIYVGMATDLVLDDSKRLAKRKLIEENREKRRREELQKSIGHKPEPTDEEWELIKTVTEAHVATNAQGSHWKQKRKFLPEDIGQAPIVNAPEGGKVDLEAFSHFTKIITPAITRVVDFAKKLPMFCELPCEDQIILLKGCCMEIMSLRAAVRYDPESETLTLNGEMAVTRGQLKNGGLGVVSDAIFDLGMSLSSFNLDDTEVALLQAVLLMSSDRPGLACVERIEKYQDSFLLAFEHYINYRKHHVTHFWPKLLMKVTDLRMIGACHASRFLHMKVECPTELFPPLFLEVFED
Description: Concentration required to inhibit 50% of binding of [125I]T3 to human Thyroid hormone receptor beta 1 in CHO-K1 cells

CHO-K1 [2] = experiment: Antagonism of compound towards thyroid response element (TRAF alpha) in CHO-K1 cells; conditions: Cricetulus griseus
CHO-K1 [3] = experiment: Percentage agonism of compound towards thyroid response element (TRAF alpha) in CHO-K1 cells at 10 uM; Partial agonist; assay type: functional, Cricetulus griseus
CHO-K1 [4] = experiment: Agonism of compound towards thyroid response element (TRAF beta) in CHO-K1 cells; assay type: functional, cell-based; conditions: Cricetulus griseus
CHO-K1 [5] = experiment: Antagonism of compound towards thyroid response element (TRAF beta) in CHO-K1 cells; conditions: Cricetulus griseus
[6] = target: T2, Thyroid hormone receptor alpha (Homo sapiens, UniProt P10827)
T2 sequence (P10827 whole entry): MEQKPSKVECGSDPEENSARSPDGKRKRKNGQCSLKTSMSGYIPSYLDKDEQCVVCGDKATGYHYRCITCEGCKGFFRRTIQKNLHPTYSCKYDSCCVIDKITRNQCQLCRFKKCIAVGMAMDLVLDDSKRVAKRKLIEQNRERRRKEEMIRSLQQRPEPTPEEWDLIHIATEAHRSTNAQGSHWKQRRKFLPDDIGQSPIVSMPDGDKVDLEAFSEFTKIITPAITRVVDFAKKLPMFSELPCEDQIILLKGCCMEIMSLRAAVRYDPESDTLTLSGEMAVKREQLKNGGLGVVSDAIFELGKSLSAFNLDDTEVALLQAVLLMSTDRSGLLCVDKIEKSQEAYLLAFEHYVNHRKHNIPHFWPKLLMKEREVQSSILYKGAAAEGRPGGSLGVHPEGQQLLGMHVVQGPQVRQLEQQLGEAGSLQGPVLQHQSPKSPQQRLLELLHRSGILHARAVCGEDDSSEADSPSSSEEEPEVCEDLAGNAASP
Description: Concentration required to inhibit 50% of binding of [125I]-T3 to human Thyroid hormone receptor alpha-1 in CHO-K1 cells

CHO-K1 [7] = experiment: Agonism of compound towards thyroid response element (TRAF alpha) in CHO-K1 cells; assay type: functional, cell-based; conditions: Cricetulus griseus
Rattus norvegicus [8] = experiment: Serum concentrations of T3 in rats after 2 weeks of daily oral administration of compound at 300 mg/kg (Control = 0.74+/-0.15); assay type: functional
[9] = target: L-type Ca2+ channel, dihydropyridine site (Rattus norvegicus, UniProt P22002+P27732+Q02485); experiment: Percentage inhibition of [3H]nitrendipine binding to L-type [Ca2+] channel dihydropyridine site in rat cortical membranes at 2 uM (70-80 %); assay type: cell membranes, Membrane; conditions: probe [3H]nitrendipine
Rattus norvegicus [10] = experiment: Serum concentrations of T4 in rats after 2 weeks of daily oral administration of compound at 30 mg/kg (Control = 33.1+/-5.00); assay type: functional
Rattus norvegicus [11] = experiment: Serum concentrations of T4 in rats after 2 weeks of daily oral administration of compound at 300 mg/kg (Control = 33.1+/-5.00); assay type: functional
Rattus norvegicus [12] = experiment: Effects on liver was determined from serum aspartate aminotransferase levels in female (5) rats after 2 weeks of daily oral administration of compound at 100 mg/kg (Control = 106+/-18); assay type: functional
[13] = target: Sodium channel alpha subunits; brain (Types I, II, III) (Rattus norvegicus) (UniProt P04775+P04774+P08104); conditions: Forebrain, Membrane, 2 uM
Chain of Sodium channel alpha subunits; brain (Types I, II, III) (Rattus norvegicus) (P04775 whole entry, looked up, other chains not shown): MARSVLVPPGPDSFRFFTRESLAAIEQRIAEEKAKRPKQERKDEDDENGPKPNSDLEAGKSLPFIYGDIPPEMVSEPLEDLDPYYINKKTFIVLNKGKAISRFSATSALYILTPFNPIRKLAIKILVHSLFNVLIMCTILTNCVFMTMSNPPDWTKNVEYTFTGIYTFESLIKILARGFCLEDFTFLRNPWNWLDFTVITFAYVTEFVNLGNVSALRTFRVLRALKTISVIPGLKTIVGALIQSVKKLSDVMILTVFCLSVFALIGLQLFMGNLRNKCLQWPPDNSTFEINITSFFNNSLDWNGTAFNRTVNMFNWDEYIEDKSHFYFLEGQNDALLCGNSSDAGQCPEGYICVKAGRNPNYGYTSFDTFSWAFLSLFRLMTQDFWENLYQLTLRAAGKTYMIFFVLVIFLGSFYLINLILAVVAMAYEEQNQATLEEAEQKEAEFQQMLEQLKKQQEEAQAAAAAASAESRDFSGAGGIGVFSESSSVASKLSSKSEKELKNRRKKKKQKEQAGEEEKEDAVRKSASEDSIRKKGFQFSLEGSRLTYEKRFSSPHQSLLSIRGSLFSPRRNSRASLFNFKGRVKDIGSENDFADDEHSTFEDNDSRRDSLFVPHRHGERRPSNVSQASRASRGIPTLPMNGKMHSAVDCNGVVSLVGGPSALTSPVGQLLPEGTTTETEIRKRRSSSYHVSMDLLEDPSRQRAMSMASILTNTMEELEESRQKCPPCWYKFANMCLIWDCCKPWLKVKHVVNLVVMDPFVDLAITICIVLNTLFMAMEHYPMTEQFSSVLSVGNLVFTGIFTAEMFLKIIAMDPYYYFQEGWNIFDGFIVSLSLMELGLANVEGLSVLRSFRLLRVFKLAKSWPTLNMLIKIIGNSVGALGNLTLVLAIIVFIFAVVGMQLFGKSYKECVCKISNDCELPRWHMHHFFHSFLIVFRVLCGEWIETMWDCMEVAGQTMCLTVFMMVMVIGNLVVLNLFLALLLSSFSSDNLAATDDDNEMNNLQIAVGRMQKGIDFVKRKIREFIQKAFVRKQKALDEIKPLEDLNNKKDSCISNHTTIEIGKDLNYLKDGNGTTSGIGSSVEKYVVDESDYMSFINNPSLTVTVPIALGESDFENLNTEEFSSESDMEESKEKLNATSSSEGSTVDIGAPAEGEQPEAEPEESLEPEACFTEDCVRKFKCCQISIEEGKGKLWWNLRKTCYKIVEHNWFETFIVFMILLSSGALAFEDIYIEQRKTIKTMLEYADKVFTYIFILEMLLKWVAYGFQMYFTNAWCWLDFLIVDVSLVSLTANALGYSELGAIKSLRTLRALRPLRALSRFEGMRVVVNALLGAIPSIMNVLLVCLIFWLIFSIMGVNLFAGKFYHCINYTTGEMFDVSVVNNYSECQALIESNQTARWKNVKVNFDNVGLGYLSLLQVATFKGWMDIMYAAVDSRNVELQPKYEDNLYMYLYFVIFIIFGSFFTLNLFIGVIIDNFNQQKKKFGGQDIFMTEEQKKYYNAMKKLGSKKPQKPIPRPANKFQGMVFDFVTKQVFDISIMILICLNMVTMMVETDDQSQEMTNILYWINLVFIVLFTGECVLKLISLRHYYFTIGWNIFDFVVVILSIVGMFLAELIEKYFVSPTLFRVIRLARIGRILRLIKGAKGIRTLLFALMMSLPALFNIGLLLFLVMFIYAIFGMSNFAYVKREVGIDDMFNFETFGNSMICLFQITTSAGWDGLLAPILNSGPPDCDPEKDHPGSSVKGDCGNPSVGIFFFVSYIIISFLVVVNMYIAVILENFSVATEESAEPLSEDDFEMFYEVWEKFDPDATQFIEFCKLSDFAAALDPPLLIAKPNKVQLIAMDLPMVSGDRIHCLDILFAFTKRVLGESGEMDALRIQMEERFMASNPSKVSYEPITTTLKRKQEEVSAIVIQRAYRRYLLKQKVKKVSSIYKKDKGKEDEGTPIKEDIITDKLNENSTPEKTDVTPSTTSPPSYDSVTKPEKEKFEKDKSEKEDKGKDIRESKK
Chain of Sodium channel alpha subunits; brain (Types I, II, III) (Rattus norvegicus) (P08104 whole entry, looked up, other chains not shown): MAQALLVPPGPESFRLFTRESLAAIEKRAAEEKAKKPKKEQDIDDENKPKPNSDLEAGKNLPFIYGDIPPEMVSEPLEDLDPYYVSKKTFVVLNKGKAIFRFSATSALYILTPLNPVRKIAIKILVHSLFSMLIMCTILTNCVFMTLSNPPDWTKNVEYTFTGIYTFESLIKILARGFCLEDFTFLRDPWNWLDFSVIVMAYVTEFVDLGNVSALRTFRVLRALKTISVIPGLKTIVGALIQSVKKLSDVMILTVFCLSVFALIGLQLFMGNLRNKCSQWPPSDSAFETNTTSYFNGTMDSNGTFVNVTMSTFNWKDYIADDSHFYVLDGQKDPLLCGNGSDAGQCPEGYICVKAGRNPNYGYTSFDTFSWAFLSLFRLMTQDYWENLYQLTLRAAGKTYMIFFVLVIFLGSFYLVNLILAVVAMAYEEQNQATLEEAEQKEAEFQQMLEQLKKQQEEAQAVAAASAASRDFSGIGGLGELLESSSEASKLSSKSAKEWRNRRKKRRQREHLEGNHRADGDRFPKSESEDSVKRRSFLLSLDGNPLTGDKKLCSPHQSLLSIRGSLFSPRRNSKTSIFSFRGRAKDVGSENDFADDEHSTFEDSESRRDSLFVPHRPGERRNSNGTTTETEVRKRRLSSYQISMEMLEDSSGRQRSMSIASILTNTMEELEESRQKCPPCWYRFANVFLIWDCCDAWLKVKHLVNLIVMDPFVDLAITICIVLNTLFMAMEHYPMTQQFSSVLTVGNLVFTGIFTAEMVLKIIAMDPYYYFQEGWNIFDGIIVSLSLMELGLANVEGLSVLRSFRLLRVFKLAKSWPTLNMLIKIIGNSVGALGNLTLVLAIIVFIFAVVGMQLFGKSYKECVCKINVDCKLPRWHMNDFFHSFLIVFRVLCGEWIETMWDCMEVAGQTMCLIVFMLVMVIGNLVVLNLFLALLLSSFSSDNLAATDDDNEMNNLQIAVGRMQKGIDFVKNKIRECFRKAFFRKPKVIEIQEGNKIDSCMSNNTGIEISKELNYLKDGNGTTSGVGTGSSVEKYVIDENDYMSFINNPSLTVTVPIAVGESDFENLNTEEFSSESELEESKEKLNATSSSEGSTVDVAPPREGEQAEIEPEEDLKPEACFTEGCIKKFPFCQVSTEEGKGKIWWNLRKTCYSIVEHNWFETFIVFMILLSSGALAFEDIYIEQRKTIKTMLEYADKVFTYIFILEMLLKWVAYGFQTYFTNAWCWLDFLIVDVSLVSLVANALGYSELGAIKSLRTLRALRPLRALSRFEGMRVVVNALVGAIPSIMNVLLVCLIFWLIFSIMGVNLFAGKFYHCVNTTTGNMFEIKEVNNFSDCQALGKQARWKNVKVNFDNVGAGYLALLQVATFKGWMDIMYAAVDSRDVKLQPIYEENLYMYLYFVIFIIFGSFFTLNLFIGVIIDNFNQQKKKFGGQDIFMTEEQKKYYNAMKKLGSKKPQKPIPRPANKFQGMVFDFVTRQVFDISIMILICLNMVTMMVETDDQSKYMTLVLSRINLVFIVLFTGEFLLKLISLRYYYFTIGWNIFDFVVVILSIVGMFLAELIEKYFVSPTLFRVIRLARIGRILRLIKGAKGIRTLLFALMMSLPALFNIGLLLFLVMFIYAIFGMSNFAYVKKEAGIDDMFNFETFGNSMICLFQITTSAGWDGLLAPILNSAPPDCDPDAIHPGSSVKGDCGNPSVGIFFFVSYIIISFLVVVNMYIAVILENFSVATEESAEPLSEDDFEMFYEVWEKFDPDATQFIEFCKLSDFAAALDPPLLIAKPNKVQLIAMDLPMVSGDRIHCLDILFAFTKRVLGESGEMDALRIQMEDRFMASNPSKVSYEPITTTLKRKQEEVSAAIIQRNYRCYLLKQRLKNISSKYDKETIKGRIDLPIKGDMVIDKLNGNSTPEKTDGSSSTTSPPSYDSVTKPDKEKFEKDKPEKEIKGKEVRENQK

Rattus norvegicus [14] = experiment: Effects on liver was determined from serum alanine aminotransferase levels in male (5) rats after 2 weeks of daily oral administration of compound at 300 mg/kg (Control = 30+/-3); assay type: functional
Rattus norvegicus [15] = experiment: Effects on liver was determined from serum cholesterol levels in male (5) rats after 2 weeks of daily oral administration of compound at 100 mg/kg (Control = 0.67+/-0.13); assay type: functional
Rattus norvegicus [16] = experiment: Effects on liver was determined from serum alanine aminotransferase levels in female (5) rats after 2 weeks of daily oral administration of compound at 300 mg/kg (Control = 23+/-5); assay type: functional
Rattus norvegicus [17] = experiment: Effects on liver was determined from serum aspartate aminotransferase levels in female (5) rats after 2 weeks of daily oral administration of compound at 300 mg/kg (Control = 106+/-18); assay type: functional
Rattus norvegicus [18] = experiment: Effects on liver was determined from serum aspartate aminotransferase levels in female (5) rats after 2 weeks of daily oral administration of compound at 30 mg/kg (Control = 106+/-18); assay type: functional
Rattus norvegicus [19] = experiment: Effects on liver was determined from serum cholesterol levels in female (5) rats after 2 weeks of daily oral administration of compound at 300 mg/kg (Control = 0.73+/-0.05); assay type: functional
Rattus norvegicus [20] = experiment: Effects on liver was determined from serum cholesterol levels in male (5) rats after 2 weeks of daily oral administration of compound at 300 mg/kg (Control = 0.67+/-0.13); assay type: functional
Rattus norvegicus [21] = experiment: Effects on liver was determined from serum aspartate aminotransferase levels in male (5) rats after 2 weeks of daily oral administration of compound at 30 mg/kg (Control = 111+/-21); assay type: functional
Rattus norvegicus [22] = experiment: Effects on liver was determined from serum alanine aminotransferase levels in male (5) rats after 2 weeks of daily oral administration of compound at 100 mg/kg (Control = 30+/-3); assay type: functional
Rattus norvegicus [23] = experiment: Effects on liver was determined from serum aspartate aminotransferase levels in male (5) rats after 2 weeks of daily oral administration of compound at 300 mg/kg (Control = 111+/-21); assay type: functional
Rattus norvegicus [24] = experiment: Serum concentrations of T3 in rats after 2 weeks of daily oral administration of compound at 100 mg/kg (Control = 0.74+/-0.15); assay type: functional
Rattus norvegicus [25] = experiment: Serum concentrations of Thyrotropin in rats after 2 weeks of daily oral administration of compound at 100 mg/kg (Control = 11.00+/-1.97); assay type: functional
Rattus norvegicus [26] = experiment: Effects on liver was determined from serum cholesterol levels in male (5) rats after 2 weeks of daily oral administration of compound at 30 mg/kg (Control = 0.67+/-0.13); assay type: functional
Rattus norvegicus [27] = experiment: Effects on liver was determined from serum alanine aminotransferase levels in male (5) rats after 2 weeks of daily oral administration of compound at 30 mg/kg (Control = 30+/-3); assay type: functional
Rattus norvegicus [28] = experiment: Effects on liver was determined from serum aspartate aminotransferase levels in male (5) rats after 2 weeks of daily oral administration of compound at 100 mg/kg (Control = 111+/-21); assay type: functional
Rattus norvegicus [29] = experiment: Effects on liver was determined from serum cholesterol levels in female (5) rats after 2 weeks of daily oral administration of compound at 30 mg/kg (Control = 0.73+/-0.05); assay type: functional
Rattus norvegicus [30] = experiment: Effects on liver was determined from serum cholesterol levels in female (5) rats after 2 weeks of daily oral administration of compound at 100 mg/kg (Control = 0.73+/-0.05); assay type: functional
Rattus norvegicus [31] = experiment: Serum concentrations of Thyrotropin in rats after 2 weeks of daily oral administration of compound at 300 mg/kg (Control = 11.00+/-1.97); assay type: functional
Rattus norvegicus [32] = experiment: Effects on liver was determined from serum alanine aminotransferase levels in female (5) rats after 2 weeks of daily oral administration of compound at 100 mg/kg (Control = 23+/-5); assay type: functional
Rattus norvegicus [33] = experiment: Serum concentrations of T3 in rats after 2 weeks of daily oral administration of compound at 30 mg/kg (Control = 0.74+/-0.15); assay type: functional
Rattus norvegicus [34] = experiment: Serum concentrations of Thyrotropin in rats after 2 weeks of daily oral administration of compound at 30 mg/kg (Control = 11.00+/-1.97); assay type: functional
Rattus norvegicus [35] = experiment: Serum concentrations of T4 in rats after 2 weeks of daily oral administration of compound at 100 mg/kg (Control = 33.1+/-5.00); assay type: functional
Rattus norvegicus [36] = experiment: Effects on liver was determined from serum alanine aminotransferase levels in female (5) rats after 2 weeks of daily oral administration of compound at 30 mg/kg (Control = 23+/-5); assay type: functional
Cavia porcellus [37] = experiment: Effective refractory period in guinea pig papillary muscles after twenty days of daily i.p. injection of 40 mg/kg Control = 201); assay type: functional, Muscle tissue; conditions: route intraperitoneal
Cavia porcellus [38] = experiment: Ratio of action potential duration (APD90/APD50) in guinea pig papillary muscles after twenty days of daily i.p. injection of 40 mg/kg Control = 1.10); assay type: functional, Papillary muscle; conditions: route intraperitoneal
Cavia porcellus [39] = experiment: Action potential duration at 90% levels of repolarization in guinea pig papillary muscles after twenty days of daily i.p. injection of 40 mg/kg Control = 186); assay type: functional, Muscle tissue; conditions: route intraperitoneal
Cavia porcellus [40] = experiment: Action potential amplitude of compound on guinea pig papillary muscles after twenty days of daily i.p. injection of 40 mg/kg Control = 115); assay type: functional, Muscle tissue; conditions: route intraperitoneal
Cavia porcellus [41] = experiment: Vmax of the action potential amplitude in guinea pig papillary muscles after twenty days of daily i.p. injection of 40 mg/kg Control = 205); assay type: functional; design: dose 40 mg/kg; conditions: Muscle tissue
Cavia porcellus [42] = experiment: Action potential duration at 50% levels of repolarization in guinea pig papillary muscles after twenty days of daily i.p. injection of 40 mg/kg (Control = 168); assay type: functional, Muscle tissue; conditions: route intraperitoneal

| IC50 [1] | IC50 [6] | SMILES | IC50 (CHO-K1 [2]) | EC50 (CHO-K1 [4]) | IC50 (CHO-K1 [5]) | EC50 (CHO-K1 [7]) | Thyroid status (Rattus norvegicus [8]) | Thyroid status (Rattus norvegicus [10]) | Thyroid status (Rattus norvegicus [11]) | ASAT levels (Rattus norvegicus [12]) | ALAT levels (Rattus norvegicus [14]) | Cholestrol levels (Rattus norvegicus [15]) | ALAT levels (Rattus norvegicus [16]) | ASAT levels (Rattus norvegicus [17]) | ASAT levels (Rattus norvegicus [18]) | Cholestrol levels (Rattus norvegicus [19]) | Cholestrol levels (Rattus norvegicus [20]) | ASAT levels (Rattus norvegicus [21]) | ALAT levels (Rattus norvegicus [22]) | ASAT levels (Rattus norvegicus [23]) | further results |
| --- | --- | --- | --- | --- | --- | --- | --- | --- | --- | --- | --- | --- | --- | --- | --- | --- | --- | --- | --- | --- | --- |
| 0.48 µM | 0.82 µM | Cc1oc2ccccc2c1C(=O)c1cc(I)c(OCC(=O)O)c(I)c1 | > 10 µM | 1.7 µM | > 10 µM | 0.45 µM |  |  |  |  |  |  |  |  |  |  |  |  |  |  | Effect (CHO-K1 [3]): 56% |
|  |  | CCCCc1oc2ccccc2c1C(=O)c1cc(I)c(OCCN(CC)CC)c(I)c1 [AMIODARONE] |  |  |  |  | 0.28 nM l-1 | 43.9 nM l-1 | 22.3 nM l-1 | 133 IU/l | 103 IU/l | 1.26 g/L | 284 IU/l | 2052 IU/l | 109 IU/l | 1.12 g/L | 1.39 g/L | 110 IU/l | 62 IU/l | 550 IU/l | inhibition at 2 µM [9]: 80%; inhibition [13]: 70%; Thyroid status (Rattus norvegicus [24]): 0.66 nM l-1; Thyroid status (Rattus norvegicus [25]): 16.1 ng/mL; Cholestrol levels (Rattus norvegicus [26]): 0.77 g/L; ALAT levels (Rattus norvegicus [27]): 35 IU/l; ASAT levels (Rattus norvegicus [28]): 131 IU/l; Cholestrol levels (Rattus norvegicus [29]): 0.89 g/L; Cholestrol levels (Rattus norvegicus [30]): 1.18 g/L; Thyroid status (Rattus norvegicus [31]): 11.2 ng/mL; ALAT levels (Rattus norvegicus [32]): 62 IU/l; Thyroid status (Rattus norvegicus [33]): 0.66 nM l-1; Thyroid status (Rattus norvegicus [34]): 13.9 ng/mL; Thyroid status (Rattus norvegicus [35]): 43.2 nM l-1; ALAT levels (Rattus norvegicus [36]): 23 IU/l |
|  | 1.4 µM | CCCCc1oc2ccccc2c1C(=O)c1cc(I)c(OCC(=O)O)c(I)c1 | > 10 µM | > 10 µM | > 10 µM | > 10 µM |  |  |  |  |  |  |  |  |  |  |  |  |  |  |  |
| 5.1 µM | 4.5 µM | Cc1oc2ccccc2c1Cc1cc(I)c(OCC(=O)O)c(I)c1 | 2.2 µM | > 10 µM | 4.1 µM | > 10 µM | 0.52 nM l-1 | 35.1 nM l-1 | 46.6 nM l-1 | 114 IU/l | 67 IU/l | 0.78 g/L | 54 IU/l | 115 IU/l | 101 IU/l | 0.93 g/L | 0.91 g/L | 104 IU/l | 43 IU/l | 102 IU/l | ERP (Cavia porcellus [37]): 223 ms; Ratio (Cavia porcellus [38]): 1.22; APD90 (Cavia porcellus [39]): 219 ms; APA (Cavia porcellus [40]): 116 mV; Thyroid status (Rattus norvegicus [24]): 0.51 nM l-1; Thyroid status (Rattus norvegicus [25]): 16.6 ng/mL; Cholestrol levels (Rattus norvegicus [26]): 0.63 g/L; ALAT levels (Rattus norvegicus [27]): 30 IU/l; ASAT levels (Rattus norvegicus [28]): 111 IU/l; Cholestrol levels (Rattus norvegicus [29]): 0.68 g/L; Cholestrol levels (Rattus norvegicus [30]): 0.69 g/L; Thyroid status (Rattus norvegicus [31]): 16.6 ng/mL; ALAT levels (Rattus norvegicus [32]): 40 IU/l; Thyroid status (Rattus norvegicus [33]): 0.52 nM l-1; Vmax (Cavia porcellus [41]): 192 V s-1; Thyroid status (Rattus norvegicus [34]): 14.2 ng/mL; Thyroid status (Rattus norvegicus [35]): 37.1 nM l-1; APD50 (Cavia porcellus [42]): 182 ms; ALAT levels (Rattus norvegicus [36]): 21 IU/l |
